These results are taken from patent US11180488B2, “Isoxazole o-linked carbamoyl cyclohexyl acids as LPA antagonists” (BRISTOL-MYERS SQUIBB COMPANY, priority 2017, dated 2021).

Broadly, the IC50 is the concentration at which inhibition is half-maximal.

T1 sequence (Q92633 whole entry): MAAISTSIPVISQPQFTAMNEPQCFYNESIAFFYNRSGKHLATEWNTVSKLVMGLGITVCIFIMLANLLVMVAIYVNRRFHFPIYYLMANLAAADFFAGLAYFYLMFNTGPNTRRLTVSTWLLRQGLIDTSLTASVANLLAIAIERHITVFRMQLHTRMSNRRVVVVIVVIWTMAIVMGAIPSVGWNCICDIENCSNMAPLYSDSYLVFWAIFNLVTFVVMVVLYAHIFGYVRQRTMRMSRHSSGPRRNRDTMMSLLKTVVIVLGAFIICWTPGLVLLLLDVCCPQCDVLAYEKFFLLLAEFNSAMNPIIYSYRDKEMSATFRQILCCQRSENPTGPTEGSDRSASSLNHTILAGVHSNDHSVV

For one assay, the system named is nerve-injured mice.
Assay: not given
Particulars: pretreatment; cited from earlier work.
Consider `C[C@@H](N)[C@H]1CC[C@H](C(=O)Nc2ccncc2)CC1` [Example Y-27632], for which the allodynia and hyperalgesia entry is “completely abolished”.

Another assay deals with CTGF.
Assay: not given
Particulars: co-treatment, MCT cells; cited from earlier work.
In the case of `Cc1noc(-c2ccc(CSCCC(=O)O)cc2)c1NC(=O)OC(C)c1ccccc1Cl` (stereo not drawn) [Ki16425], the “induction of CTGF expression by LPA” value is recorded as “almost completely suppressed”.

The next assay addresses T1, human LPA1 (Homo sapiens, UniProt Q92633).
T1 construct: expressed in transfected cells; host or cells: Chinese hamster ovary (CHO) cells
The experiment in a line: LPA1 functional antagonist assay (LPA-induced calcium flux). The assay is classed as cell-based. Particulars: CHO cells overexpressing human LPA1; calcium flux induced by 10 nM LPA; read-out: LPA1 IC50. As to the method:
The effectiveness of compounds of the present invention as LPA1 inhibitors can be determined in an LPA1 functional antagonist assay as follows:
Chinese hamster ovary cells overexpressing human LPA1 were plated overnight (15,000 cells/well) in poly-D-lysine coated 384-well microplates (Greiner bio-one, Cat #781946) in DMEM/F12 medium (Gibco, Cat #11039). Following overnight culture, cells were loaded with calcium indicator dye (AAT Bioquest Inc, Cat #34601) for 30 minutes at 37° C. The cells were then equilibrated to room temperature for 30 minutes before the assay. Test compounds solubilized in DMSO were transferred to 384 well non-binding surface plates (Corning, Cat #3575) using the Labcyte Echo acoustic dispense and diluted with assay buffer [1×HBSS with calcium/magnesium (Gibco Cat #14025-092), 20 mM HEPES (Gibco Cat #15630-080) and 0.1% fatty acid free BSA (Sigma Cat #A9205)] to a final concentration of 0.5% DMSO. Diluted compounds were added to the cells by FDSS6000 (Hamamatsu) at final concentrations ranging from 0.08 nM to 5 μM. and were then incubated for 20 min at room temperature at which time LPA (Avanti Polar Lipids Cat #857130C) was added at final concentrations of 10 nM to stimulate the cells. […] IC50 values were determined by fitting data to a 4-parameter logistic equation (GraphPad Prism, San Diego Calif.).
In general terms: A change in cytosolic calcium serves as a functional read-out for many receptors and channels.
On to `Cc1noc(-c2cnc(O[C@H]3CCC[C@H](C(=O)O)C3)cn2)c1COC(=O)N(C)CCC(C)C` [Example 56], for which the IC50 came out at 150 nM.

Regarding `Cc1noc(-c2cnc(O[C@H]3CCC[C@H](C(=O)O)C3)cn2)c1COC(=O)N(C)C1CCCC1` [Example 55], the half-inhibitory concentration (IC50) turned out to be 88 nM.

On to `Cc1cc(-c2onc(C)c2COC(=O)N(C)C2CCCC2)ccc1O[C@H]1CCC[C@H](C(=O)O)C1` [Example 64], for which the half-maximal inhibitory concentration (IC50) stood at 52 nM.

`Cc1nc(-c2onc(C)c2COC(=O)N(C)C(C)(C)C)ccc1O[C@H]1CCC[C@H](C(=O)O)C1` [Example 63]: the IC50 was 50 nM.

The same assay, now with this note: CHO cells overexpressing human LPA1; calcium flux induced by 10 nM LPA; read-out: hLPA1 IC50.
Turning to `Cc1noc(-c2ccc(O[C@@H]3CCC[C@@H](CC(=O)O)C3)cc2)c1COC(=O)N(C)C1CCCC1` (racemic) [Example 47, (±)-(Trans)-2-(3-(4-(4-(((cyclopentyl(methyl)carbamoyl)oxy)methyl)-3-methylisoxazol-5-yl)phenoxy)cyclohexyl)acetic Acid], the IC50 was 570 nM.

As to `COC(C)CN(C)C(=O)OCc1c(C)noc1-c1ccc(O[C@@H]2CCC[C@@H](C(=O)O)C2)cc1` (stereo partly drawn) [Example 71], the IC50 is 1630 nM.

In the case of `Cc1noc(-c2ccc(O[C@@H]3CCC[C@@](F)(C(=O)O)C3)cc2)c1COC(=O)N(C)C1CCCC1` [Example 6], the IC50 was 103 nM.

For the molecule `Cc1noc(-c2ccc(O[C@@H]3CCC[C@@H](CC(=O)O)C3)cc2)c1COC(=O)N(C)CCC(C)C` [Example 49], the 50% inhibitory concentration (IC50) amounted to 1210 nM.

`Cc1noc(-c2ccc(O[C@@H]3CCC[C@@](F)(C(=O)O)C3)cc2)c1COC(=O)N(C)C1CCCC1` (single isomer, unassigned) [Example 4]: the IC50 turned out to be 15 nM.

As to `Cc1noc(-c2ccc(OC3CCCC(c4nnn[nH]4)C3)cc2)c1COC(=O)N(C)C1CCCC1` (single isomer, unassigned) [Example 77, (5-(4-((3-(1H-tetrazol-5-yl)cyclohexyl)oxy)phenyl)-3-methylisoxazol-4-yl)methyl cyclopentyl(methyl)carbamate], the IC50 came out at 379 nM.

`Cc1nc(-c2onc(C)c2COC(=O)N(C)Cc2cccc(Cl)c2)ccc1O[C@H]1CCC[C@H](C(=O)O)C1` [Example 17]: the IC50 is 399 nM.

Take `Cc1nc(-c2onc(C)c2COC(=O)N(C)CC2CCC2)ccc1O[C@H]1CCC[C@H](C(=O)O)C1` [Example 11]: the IC50 came to 13 nM.

With `Cc1noc(-c2ccc(O[C@H]3CCC[C@H](C(=O)O)C3)cn2)c1COC(=O)N(C)CCC1CC1` [Example 43], the IC50 is 15 nM.

As for `Cc1noc(-c2ccc(OC3CCCC(C#N)C3)cc2)c1COC(=O)N(C)C1CCCC1` (mixture of isomers) [Example 74, (5-(4-((3-cyanocyclohexyl)oxy)phenyl)-3-methylisoxazol-4-yl)methyl cyclopentyl(methyl)carbamate], the half-maximal inhibitory concentration (IC50) was determined as 3250 nM.

Regarding `COCCN(C)C(=O)OCc1c(C)noc1-c1ccc(O[C@@H]2CCC[C@@H](C(=O)O)C2)cc1` [Example 72], the IC50 came to 472 nM.

`Cc1noc(-c2ccc(O[C@H]3CCC[C@H](C(=O)O)C3)cc2)c1COC(=O)N(C)CCC1CCC1` (racemic) [Example 29]: the IC50 is 424 nM.

With `Cc1noc(-c2ccc(O[C@@H]3CCC[C@@H](C(=O)O)C3)cc2)c1COC(=O)N(C)C(C)C1CC1` (stereo partly drawn) [Example 68], the 50% inhibitory concentration (IC50) was 48 nM.

On to `Cc1noc(-c2ccc(O[C@H]3CCC[C@H](C(=O)O)C3)cc2)c1COC(=O)N(C)CCC(C)(C)C` [Example 30], for which the IC50 was found to be 60 nM.

With `Cc1noc(-c2ccc(OC3CCCC(c4nnn[nH]4)C3)cc2)c1COC(=O)N(C)C1CCCC1` (single isomer, unassigned) [Example 76, (5-(4-((3-(1H-tetrazol-5-yl)cyclohexyl)oxy)phenyl)-3-methylisoxazol-4-yl)methyl cyclopentyl(methyl)carbamate], the IC50 is 2310 nM.

As to `COCC(C)N(C)C(=O)OCc1c(C)noc1-c1ccc(O[C@@H]2CCC[C@@H](C(=O)O)C2)cc1` (stereo partly drawn) [Example 67], the IC50 was found to be 675 nM.

On to `Cc1noc(-c2ccc(OC3CCCC(c4nnn[nH]4)C3)cc2)c1COC(=O)N(C)C1CCCC1` (mixture of isomers) [Example 75, (5-(4-((3-(1H-tetrazol-5-yl)cyclohexyl)oxy)phenyl)-3-methylisoxazol-4-yl) methyl cyclopentyl(methyl)carbamate], for which the half-inhibitory concentration (IC50) was 851 nM.

As for `Cc1noc(-c2ccc(O[C@H]3CCC[C@H](C(=O)O)C3)cc2)c1COC(=O)N(C)C1CCOC1` (stereo partly drawn) [Example 31], the IC50 was 370 nM.

For the next assay, the system named is human foetal lung fibroblasts.
Assay: not given
As to conditions: cited from earlier work.
`Cc1noc(-c2ccc(CSCCC(=O)O)cc2)c1NC(=O)OC(C)c1ccccc1Cl` (stereo not drawn) [Ki16425]: the “chemotaxis of human foetal lung fibroblasts induced by BAL from IPF patients” value is “blocked” and the “fibroblast chemotactic activity in bronchoalveolar lavage samples of IPF subjects” value is recorded as “inhibited”.

Another assay has as its system UUO mice.
Assay: not given
As to conditions: mouse, in vivo; cited from earlier work.
Take `Cc1noc(-c2ccc(CSCCC(=O)O)cc2)c1NC(=O)OC(C)c1ccccc1Cl` (stereo not drawn) [Ki16425]: the “renal fibrosis profile of treated UUO mice” value is listed as “closely resembled the profile of LPA1 (−/−) mice”.

The subject of the next assay is highly peritoneal metastatic pancreatic cancer cell line.
Assay: not given
As to conditions: cited from earlier work.
As for `Cc1noc(-c2ccc(CSCCC(=O)O)cc2)c1NC(=O)OC(C)c1ccccc1Cl` (stereo not drawn) [Ki16425], the “LPA-induced and ascites-induced invasion activity” value was “blocked”.

A further assay deals with IPF patients.
Assay: not given
As to conditions: 26-week clinical trial; cited from earlier work.
Regarding `Cc1noc(-c2ccc(-c3ccc(C4(C(=O)O)CC4)cc3)cc2)c1NC(=O)O[C@H](C)c1ccccc1` [BMS-986020], the “rate of FVC (forced vital capacity) decline” value is listed as “significantly reduce”.

A further assay concerns pancreatic cancer cell lines.
Assay: not given
As to conditions: cited from earlier work.
`Cc1noc(-c2ccc(CSCCC(=O)O)cc2)c1NC(=O)OC(C)c1ccccc1Cl` (stereo not drawn) [Ki16425]: the “in vitro migration in response to LPA and peritoneal fluid (ascites)” value was “effectively blocked”.
